Measurements as given in US20250041306A1, “TARGETED PROTEASE DEGRADATION (TED) PLATFORM” (EUBULUS BIOTHERAPEUTICS INC., priority 2021, published 2025).
Read-outs that look alike come from different tables or passages of the source. Blank lines part the entries; values can stand above or below the compound they belong to. Numbered stars: 1 amine (or outer) side, 2 acyl side, 3 side chain; on linkers, the order of the positions; unused ones are H or OH. Bridge positions count the residues as written; N and C are the ends. Square brackets hold non-standard residues; d marks the D form. Peptide text beside a SMILES is read from it. I, II: the chains in the order shown. * marks the point of attachment. X1 = NC(=O)c1ccccc1Nc1nc(Nc2ccc(N3CCN(C(=O)NC4CCC(N(CCC#Cc5ccc6c(c5)CN(C5CCC(=O)NC5=O)C6=O)C(=O)OCCS*)CC4)CC3)cc2)ncc1Cl; Succinimide(1-C2H4CO,3-yl) = O=C1CC([*:1])C(=O)N1CCC(=O)[*:2]; Thr(ol) = C[C@@H](O)[C@H](N)CO

Key:
Format in all cases: cell-based
[1] = test system: Human Small Cell Lung Cancer NCI-H82; experiment: Cell proliferation experiment (Alarm blue), H82
Protocol: (§1) The cells were cultured in conventional ways, and the cells should be passed for at least 2 generations before plating. Cells at the logarithmic growth phase were collected, prepared into single cell suspensions and counted. The concentration of cells was adjusted to desired concentration, and cells were inoculated into a 96-well cell culture plate at 100 μl per well. 100 μL of complete medium of the test compound were added to each well, 2 replicate wells for each concentration were set up, and diluted with a 5-fold gradient, and continued to culture for 72 h. All cells were subjected to EC50 test for corresponding samples.
(§2) The fluorescence intensity of each well was detected using the Alarm blue method, and IC50 was calculated.
(§3) IC50 was calculated according to the following formula:
(§4) [formula] • wherein Min, Max and Slope represent the minimum, maximum and slope respectively.

[2] = test system: human gastric carcinoma cells N87; experiment: Cell proliferation experiment (Alarm blue), N87
Protocol: as §1, §2, §3, §4

[3] = test system: Human Colon Cancer cells Colo205; experiment: Cell proliferation experiment (Alarm blue), Colo205
Protocol: as §1, §2, §3, §4

[4] = test system: Human Small Cell Lung Cancer H69; experiment: Cell proliferation experiment (Alarm blue), H69
Protocol: as §1, §2, §3, §4

Human Colon Cancer HT-29 = experiment: Cell proliferation experiment (Alarm blue), HT-29
Protocol: as §1, §2, §3, §4

[5] = Homo sapiens, NCI-H82, H82 cells, 72 h culture, read-out: Anti cell proliferative activity EC50, H82
[6] = Homo sapiens, N87 cells, 72 h culture, read-out: Anti cell proliferative activity EC50, N87
[7] = Homo sapiens, COLO 205, Colo205 cells, 72 h culture, read-out: Anti cell proliferative activity EC50, Colo205
[8] = Homo sapiens, NCI-H69, H69 cells, 72 h culture, read-out: Anti cell proliferative activity EC50, H69
[9] = Homo sapiens, HT-29 cells, 72 h culture, read-out: Anti cell proliferative activity EC50, HT-29
[10] = Homo sapiens, NCI-H82, 72 h, H82 cells, 72 h culture, read-out: Anti cell proliferative activity EC50, H82
[11] = Homo sapiens, 72 h, N87 cells, 72 h culture, read-out: Anti cell proliferative activity EC50, N87
[12] = Homo sapiens, COLO 205, 72 h, Colo205 cells, 72 h culture, read-out: Anti cell proliferative activity EC50, Colo205
[13] = H82 cells, 72 h culture, read-out: Anti cell proliferative activity EC50, H82
[14] = N87 cells, 72 h culture, read-out: Anti cell proliferative activity EC50, N87
[15] = Colo205 cells, 72 h culture, read-out: Anti cell proliferative activity EC50, Colo205
[16] = H69 cells, 72 h culture, read-out: Anti cell proliferative activity EC50, H69
[17] = HT-29 cells, 72 h culture, read-out: Anti cell proliferative activity EC50, HT-29

Structure (SMILES): CNC(=O)c1ccccc1Nc1nc(Nc2ccc(N3CCN(C(=O)N[C@H]4CC[C@@H](N(CCC#Cc5ccc6c(c5)CN(C5CCC(=O)NC5=O)C6=O)C(=O)OCc5ccc(NC(=O)[C@H](CC(N)=O)NC(=O)[C@H](C)NC(=O)[C@H](C)NC(=O)COCCOC)cc5)CC4)CC3)cc2)ncc1Cl (stereo partly shown) [UB-181237]
- EC50 [1, 5]: 141 nM
- EC50 [2, 6]: 308 nM
- EC50 [3, 7]: 277 nM
- EC50 [4, 8]: > 1000 nM
- EC50 (Human Colon Cancer HT-29; [9]): 902 nM

- EC50 [1, 10]: 37 nM
- EC50 [2, 11]: 92 nM
- EC50 [3, 12]: 40.1 nM
- EC50 [4, 8]: > 1000 nM
- EC50 (Human Colon Cancer HT-29; [9]): 181 nM
Structure (SMILES): CNC(=O)c1ccccc1Nc1nc(Nc2ccc(N3CCN(C(=O)NC4CCN(CCNCCC#Cc5ccc6c(c5)CN(C5CCC(=O)NC5=O)C6=O)CC4)CC3)cc2)ncc1Cl (stereo not shown) [UB-181240]

- EC50 ([1]; 72 h): > 1000 nM
- EC50 ([2]; 72 h): > 1000 nM
- EC50 ([3]; 72 h): > 1000 nM
- EC50 ([4]; 72 h): > 1000 nM
- EC50 (Human Colon Cancer HT-29; 72 h): > 1000 nM
Structure (SMILES): CC[C@@H]1C(=O)N(C)c2cnc(Nc3ccc(-c4cn([C@H]5CC[C@@H](N(CCOCCC#Cc6cccc7c6CN(C6CCC(=O)NC6=O)C7=O)C(=O)OCCSSC[C@H](NC(=O)[C@H](CC(=O)O)NC(=O)[C@H](CC(=O)O)NC(=O)[C@H](CCCNC(=N)N)NC(=O)[C@H](CC(=O)O)NC(=O)CC[C@H](NC(=O)c6ccc(NCc7cnc8nc(N)[nH]c(=O)c8n7)cc6)C(=O)O)C(=O)O)CC5)nn4)cc3OC)nc2N1C1CCCC1 (stereo partly shown) [UB-181336]

- EC50 [1, 10]: 147 nM
- EC50 [2, 11]: 258 nM
- EC50 [3, 12]: 218 nM
- EC50 [4, 8]: 454 nM
- EC50 (Human Colon Cancer HT-29; [9]): 951 nM
Structure (SMILES): NC(=O)c1ccccc1Nc1nc(Nc2ccc(N3CCN(C(=O)N[C@H]4CC[C@@H](NC5CN(CC#Cc6ccc7c(c6)CN(C6CCC(=O)NC6=O)C7=O)C5)CC4)CC3)cc2)ncc1Cl (stereo partly shown) [UB-181270]

Structure (SMILES): CNC(=O)c1ccccc1Nc1nc(Nc2ccc(N3CCN(C(=O)N[C@H]4CC[C@@H](N(CCC#Cc5ccc6c(c5)CN(C5CCC(=O)NC5=O)C6=O)C(=O)OCc5ccc(NC(=O)[C@H](CCCNC(N)=O)NC(=O)[C@@H](NC(=O)CCCCCN6C(=O)CC(SC[C@H](N)C(=O)N[C@H](Cc7ccccc7)C(=O)N[C@H]7CSSC[C@@H](C(=O)N[C@H](CO)[C@@H](C)O)NC(=O)[C@H]([C@@H](C)O)NC(=O)[C@H](CCCCN)NC(=O)[C@@H](Cc8c[nH]c9ccccc89)NC(=O)[C@H](Cc8ccccc8)NC7=O)C6=O)C(C)C)cc5)CC4)CC3)cc2)ncc1Cl (stereo partly shown) [UB-181246]
- EC50 [1, 13]: 298 nM
- EC50 [2, 14]: 515 nM
- EC50 [3, 15]: 236 nM
- EC50 [4, 16]: > 1000 nM
- EC50 (Human Colon Cancer HT-29; [17]): > 1000 nM

- EC50 ([1]; 72 h): 746 nM
- EC50 ([2]; 72 h): > 1000 nM
- EC50 ([3]; 72 h): 847 nM
- EC50 ([4]; 72 h): > 1000 nM
- EC50 (Human Colon Cancer HT-29; 72 h): > 1000 nM
Structure (SMILES): C[C@@H](O)[C@@H]1NC(=O)[C@H](CCCCN)NC(=O)[C@@H](Cc2c[nH]c3ccccc23)NC(=O)[C@H](Cc2ccccc2)NC(=O)[C@@H](NC(=O)[C@@H](Cc2ccccc2)NC(=O)[C@@H](N)CSC2CC(=O)N(CCC(=O)N[C@@H](CC(=O)O)C(=O)N[C@@H](CCCNC(=N)N)C(=O)N[C@@H](CC(=O)O)C(=O)N[C@@H](CC(=O)O)C(=O)N[C@@H](CSSCCOC(=O)N(CCC#Cc3ccc4c(c3)CN(C3CCC(=O)NC3=O)C4=O)C3CCC(NC(=O)N4CCN(c5ccc(Nc6ncc(Cl)c(Nc7ccccc7C(N)=O)n6)cc5)CC4)CC3)C(=O)O)C2=O)CSSC[C@@H](C(=O)N[C@H](CO)[C@@H](C)O)NC1=O (stereo partly shown) [UB-181342] (I: H-C[dF]CF[dW]KTC[Thr(ol)] / II: DRDDC(X1)-OH; linker I:1-II:N via Succinimide(1-C2H4CO,3-yl); disulfide I:3-I:8)

Structure (SMILES): CC[C@@H]1C(=O)N(C)c2cnc(Nc3ccc(-c4cn([C@H]5CC[C@@H](N(CCOCCC#Cc6cccc7c6CN(C6CCC(=O)NC6=O)C7=O)C(=O)OCCSSC[C@H](NC(=O)CC[C@H](NC(=O)c6ccc(NCc7cnc8nc(N)[nH]c(=O)c8n7)cc6)C(=O)O)C(=O)N[C@H](Cc6ccccc6)C(=O)N[C@H]6CSSC[C@@H](C(=O)N[C@H](CO)[C@@H](C)O)NC(=O)[C@H]([C@@H](C)O)NC(=O)[C@H](CCCCN)NC(=O)[C@@H](Cc7c[nH]c8ccccc78)NC(=O)[C@H](Cc7ccccc7)NC6=O)CC5)nn4)cc3OC)nc2N1C1CCCC1 (stereo partly shown) [UB-181339]
- EC50 [1, 13]: 236 nM
- EC50 [2, 14]: 456 nM
- EC50 [3, 15]: 249 nM
- EC50 [4, 16]: > 1000 nM
- EC50 (Human Colon Cancer HT-29; [17]): > 1000 nM

- EC50 [1, 13]: 354 nM
- EC50 [2, 14]: 132 nM
- EC50 [3, 15]: 175 nM
- EC50 [4, 16]: > 1000 nM
Structure (SMILES): NC(=O)c1ccccc1Nc1nc(Nc2ccc(N3CCN(C(=O)NC4CCN(C(=O)CNCCC#Cc5ccc6c(c5)CN(C5CCC(=O)NC5=O)C6=O)CC4)CC3)cc2)ncc1Cl (stereo not shown) [UB-181239]

- EC50 [1, 10]: 32.4 nM
- EC50 [2, 11]: 71.9 nM
- EC50 [3, 12]: 133 nM
- EC50 [4, 8]: > 1000 nM
Structure (SMILES): NC(=O)c1ccccc1Nc1nc(Nc2ccc(N3CCN(C(=O)N[C@H]4CC[C@@H](NC5CN(CCC#Cc6ccc7c(c6)CN(C6CCC(=O)NC6=O)C7=O)C5)CC4)CC3)cc2)ncc1Cl (stereo partly shown) [UB-181251]

Structure (SMILES): CNC(=O)c1ccccc1Nc1nc(Nc2ccc(N3CCN(C(=O)NC4CCN(C(=O)CNCCC#Cc5ccc6c(c5)CN(C5CCC(=O)NC5=O)C6=O)CC4)CC3)cc2)ncc1Cl (stereo not shown) [UB-181235]
- EC50 [1, 5]: 253 nM
- EC50 [2, 6]: 813 nM
- EC50 [3, 7]: 144 nM
- EC50 [4, 8]: > 1000 nM

- EC50 [1, 10]: 42.3 nM
- EC50 [2, 11]: 71.8 nM
- EC50 [3, 12]: 59.4 nM
- EC50 [4, 8]: > 1000 nM
Structure (SMILES): CNC(=O)c1ccccc1Nc1nc(Nc2ccc(N3CCN(C(=O)N[C@H]4C[C@@H](NCC#Cc5ccc6c(c5)CN(C5CCC(=O)NC5=O)C6=O)C4)CC3)cc2)ncc1Cl (stereo partly shown) [UB-181257]

Structure (SMILES): C[C@H](NC(=O)CCCCCN1C(=O)C=CC1=O)C(=O)N[C@@H](C)C(=O)N[C@@H](CC(N)=O)C(=O)Nc1ccc(COC(=O)N(CCC#Cc2ccc3c(c2)CN(C2CCC(=O)NC2=O)C3=O)C2CCC(NC(=O)N3CCN(c4ccc(Nc5ncc(Cl)c(Nc6ccccc6C(N)=O)n5)cc4)CC3)CC2)cc1 (stereo partly shown) [UB-181295]
- EC50 [1, 5]: 106 nM
- EC50 [3, 7]: 136 nM
- EC50 [4, 8]: 953 nM
- EC50 (Human Colon Cancer HT-29; [9]): 484 nM

- EC50 [1, 10]: 24.9 nM
- EC50 [2, 11]: 23.6 nM
- EC50 [3, 12]: 24.8 nM
- EC50 [4, 8]: 61.2 nM
Structure (SMILES): NC(=O)c1ccccc1Nc1nc(Nc2ccc(N3CCN(C(=O)N[C@H]4C[C@H](NCCC#Cc5ccc6c(c5)CN(C5CCC(=O)NC5=O)C6=O)C4)CC3)cc2)ncc1Cl (stereo partly shown) [UB-181261]

- EC50 [1, 10]: 603 nM
- EC50 [2, 11]: 92.5 nM
- EC50 [3, 12]: 146 nM
- EC50 [4, 8]: > 1000 nM
Structure (SMILES): NC(=O)c1ccccc1Nc1nc(Nc2ccc(N3CCN(C(=O)NC4CCN(C(=O)CNCCC#Cc5ccc6c(c5)CN(C5CCC(=O)NC5=O)C6=O)CC4)CC3)cc2)ncc1Cl (stereo not shown) [UB-181236]

- EC50 ([1]; 72 h): > 1000 nM
- EC50 ([2]; 72 h): > 1000 nM
Structure (SMILES): CC[C@H]1C(=O)N(C)c2cnc(Nc3ccc(-c4cn([C@H]5CC[C@@H](N(CCOCCC#Cc6cccc7c6CN(C6CCC(=O)NC6=O)C7=O)C(=O)OCc6ccc(NC(=O)[C@H](CCCNC(N)=O)NC(=O)[C@@H](NC(=O)CCOCCOCCOCCOCCOCCOCCOCCOCCNC(=O)CCN7C(=O)C=CC7=O)C(C)C)cc6)CC5)nn4)cc3OC)nc2N1C1CCCC1 (stereo partly shown) [UB-181238]

- EC50 [1, 10]: 53.7 nM
- EC50 [2, 11]: 20.5 nM
- EC50 [3, 12]: 48.2 nM
- EC50 [4, 8]: > 1000 nM
Structure (SMILES): CNC(=O)c1ccccc1Nc1nc(Nc2ccc(N3CCN(C(=O)N[C@H]4C[C@@H](NCCC#Cc5ccc6c(c5)CN(C5CCC(=O)NC5=O)C6=O)C4)CC3)cc2)ncc1Cl (stereo partly shown) [UB-181250]

- EC50 [1, 10]: 386 nM
- EC50 [2, 11]: 66.1 nM
- EC50 [3, 12]: 52 nM
- EC50 [4, 8]: > 1000 nM
Structure (SMILES): CNC(=O)c1ccccc1Nc1nc(Nc2ccc(N3CCC(C(=O)N4CCC5(CC4)CC(NCCC#Cc4ccc6c(c4)CN(C4CCC(=O)NC4=O)C6=O)C5)CC3)cc2)ncc1Cl (stereo not shown) [UB-181249]
